Measurements taken from US7884135B2, “Modafinil-based treatment for premature ejaculation” (NeuroHealing Pharmaceuticals, Inc., priority 2006, dated 2011).

How the values were obtained:
[1] = cited from earlier work
[2] = system: ejaculation during sexual activity; assay: Delayed ejaculation with orally administered (tablet) racemic modafinil (Example 2, Subject 2); format: in vivo, human; details: 200 mg oral PROVIGIL tablet, hours after dosing
Method: Subject 2 took racemic modafinil (200 mg) in the form of an orally administrable tablet of PROVIGIL® (Cephalon) at 3:00 pm for the purpose of increasing alertness.

[3] = system: ejaculation during sexual activity; assay: Delayed ejaculation with sublingually administered d-modafinil (Example 1, Subject 1); format: in vivo, human; details: 100 mg d-modafinil formulation sublingually
Method: The synthesized d-modafinil was compounded into a composition containing sugar, spearmint flavor, cinnamon flavor, gum arabic, gelatin, corn syrup, and dyes that could be administered sublingually. Formulations containing 100 mg of d-modafinil were prepared.
Subject 1 took the above-described formulation of d-modafinil sublingually at 9:00 pm in the course of testing a composition containing d-modafinil for a different effect unrelated to sexual activity.

mice = details: cited from earlier work
[4] = pharmacokinetic studies of modafinil in the human body (literature); format: in vivo; details: l-enantiomer versus d-enantiomer
Method: The optical enantiomers of modafinil have similar pharmacological actions in animals. […] Owing to the differences in half-life and rate of clearance of the individual enantiomers, the use of racemic modafinil results in differences in the circulating levels of the two enantiomers. […] After a single oral dose, racemic modafinil is readily absorbed, reaching maximum plasma concentrations at 2 hours to 4 hours after administration (see, e.g., Wong et al., J. Clin. Pharmacol., 39: 3040 (1999); Wong et al., J. Clin. Pharmacol., 39: 281-288 (1999); Robertson et al., Clin. Pharmacokinet., 42: 123-137 (2003); and Dinges et al., Curr. Medical Research and Opinions, 22: 159-169 (2006)).

SMILES: NC(=O)C[S+]([O-])C(c1ccccc1)c1ccccc1 (racemic) [modafinil, 2-[(diphenylmethyl)sulfinyl]acetamide]
- fraction of modafinil eliminated by the liver ([1]; humans, ingestion of PROVIGIL tablets, package insert): ≤ 90%
- delay in ejaculation during sexual activity [2]: experienced a delay in ejaculation

SMILES: NC(=O)C[S@+]([O-])C(c1ccccc1)c1ccccc1 [d-modafinil, S-(+)-modafinil]
- amount in the circulation relative to l-modafinil ([1]; after use of racemic modafinil): three times less
- elimination rate relative to l-modafinil ([1]; human, d-modafinil versus l-modafinil): three times faster
- time to ejaculate during sexual activity, factor longer than usual ([3]; first administration): about two to three
- time to ejaculate during sexual intercourse, factor of delay ([3]; second administration a week later): about two to three
- pharmacological activity compared with the modafinil racemic compound (mice): same pharmacological activity

SMILES: NC(=O)C[S@@+]([O-])C(c1ccccc1)c1ccccc1 [l-modafinil, R-(−)-modafinil, reference compound]
- half-life relative to the d-enantiomer [4]: approximately three-times longer
- pharmacological activity compared with the modafinil racemic compound (mice): same pharmacological activity
